How the values were obtained:
Type in all cases: physicochemical
[1] = Solid-form stability on storage, resulting form by XRPD analysis
Experimental: (§1) X-ray powder diffraction (XRPD) analyses were performed using the following instruments & methods:
(§2) A. Shimadzu XRD-6000 X-ray powder diffractometer using Cu Kα radiation. The instrument was equipped with a long fine focus X-ray tube. The tube voltage and amperage were set to 40 kV and 40 mA, respectively. The divergence and scattering slits were set at 1° and the receiving slit was set at 0.15 mm. Diffracted radiation was detected by a NaI scintillation detector. A θ-2θ continuous scan at 3°/min (0.4 sec/0.02° step) from 2.5 to 40° 2θ was used. A silicon standard was analyzed to check the instrument alignment. Data were collected and analyzed using XRD-6000 v. 4.1. Samples were prepared for analysis by placing them in a sample holder.
(§3) B. Inel XRG-3000 diffractometer, equipped with a CPS (Curved Position Sensitive) detector with a 2 Orange of 120°. Real time data were collected using Cu—Kα radiation starting at approximately 4° 2θ at a resolution of 0.03° 2θ. The tube voltage and amperage were set to 40 kV and 30 mA, respectively. The monochromator slit was set at 5 mm by 80 μm or 160 μm. […] Samples were prepared for analysis by packing them into thin-walled glass capillaries. Each capillary was mounted onto a goniometer head that is motorized to permit spinning of the capillary during data acquisition. The acquisition time was between 5 to 10 min. Instrument calibration was performed using a silicon reference standard.
(§4) D. Bruker D-8 Discover diffractometer and Bruker's General Area Diffraction Detection System (GADDS, v. 4.1.20). An incident beam of Cu—Kα radiation was produced using a fine-focus tube (40 kV, 40 mA), a Gobel mirror, and a 0.5 mm double-pinhole collimator. The samples were positioned for analysis by securing the well plate to a translation stage and moving each sample to intersect the incident beam. Alternatively, the sample was packed between 3-micron thick films to form a portable disc-shaped specimen, and the specimen was loaded in a holder secured to a translation stage. The samples were analyzed using a transmission geometry. The incident beam was scanned and rastered over the sample during the analysis to optimize orientation statistics. A beam-stop was used to minimize air scatter from the incident beam at low angles. Diffraction patterns were collected using a Hi-Star area detector located 15 cm from the sample and processed using GADDS. The intensity in the GADDS image of the diffraction pattern was integrated using a step size of 0.04° 2θ. The integrated patterns display diffraction intensity as a function of 2θ. Prior to the analysis a silicon standard was analyzed to verify the Si 111 peak position.
E. Peak Picking Methods. Any XRPD files generated from Inel or Bruker XRPD instruments were converted to Shimadzu .raw file using File Monkey version 3.0.4. The Shimadzu .raw file was processed by the Shimadzu XRD-6000 version 4.1 software to automatically find peak positions. The “peak position” means the maximum intensity of a peaked intensity profile. The following processes were used with the Shimadzu XRD-6000 “Basic Process” version 2.6 algorithm: • Smoothing was done on all patterns. • The background was subtracted to find the net, relative intensity of the peaks. • A peak from Cu K alpha2 (1.5444 Å) wavelength was subtracted from the peak generated by Cu K alpha1 (1.5406 Å) peak at 50% intensity for all patterns. Differential Scanning Calorimetry

[2] = Solid-form stability on heating, resulting form by XRPD analysis; conditions: heated five (5) minutes at about 160° C. in an argon atmosphere, lyophilized sample (Preparation Method 3), hydrochloride
Experimental: as §1, §2, §3
C. Shimadzu XRD-6000 X-ray powder diffractometer equipped with an Anton Paar HTK 1200 high temperature stage (Variable-temperature XRPD (VT-XRPD)). The sample was packed in a ceramic holder and analyzed form 2.5 to 40° 2θ at 3°/min (0.4 sec/0.02° step). The heating rate was 10° C./min. A silicon standard was analyzed to check the instrument alignment. Temperature calibration was performed using vanillin and sulfapyridine USP melting point standards. Data were collected and analyzed using XPD-6000 v.4.1. The system was kept under a purge of nitrogen during the analysis.
as §4
E. Peak Picking Methods. Any XRPD files generated from Inel or Bruker XRPD instruments were converted to Shimadzu .raw file using File Monkey version 3.0.4. The Shimadzu .raw file was processed by the Shimadzu XRD-6000 version 4.1 software to automatically find peak positions. The “peak position” means the maximum intensity of a peaked intensity profile. The following processes were used with the Shimadzu XRD-6000 “Basic Process” version 2.6 algorithm: • Smoothing was done on all patterns. • The background was subtracted to find the net, relative intensity of the peaks. • A peak from Cu K alpha2 (1.5444 Å) wavelength was subtracted from the peak generated by Cu K alpha1 (1.5406 Å) peak at 50% intensity for all patterns. […]

[3] = Moisture sorption/desorption (VTI SGA-100 moisture balance)
Experimental: Moisture sorption/desorption data were collected on a VTI SGA-100 moisture balance system. For sorption isotherms, a sorption range of 5 to 95% relative humidity (RH) and a desorption range of 95 to 5% RH in 10% RH increments were used for analysis. The samples were not dried prior to analysis. Equilibrium criteria used for analysis were less than 0.0100% weight change in 5 minutes with a maximum equilibration time of 3 hours if the weight criterion was not met. Data were not corrected for the initial moisture content of the samples.

[4] = Approximate solubility in various solvents by aliquot addition, visual dissolution; conditions: thermodynamic from solid, amorphous obtained by Preparation Method 3
Experimental: Dissolution was determined visually. The actual solubilities may be higher than reported due to the use of excess solvent (e.g., because of slow dissolution rates).

- Time stable when stored ([1]; about 5° C., 11% relative humidity): at least 5 days
- Time stable when stored ([1]; about 5° C., 43% relative humidity): ≥ 8 days
- Time stable when stored ([1]; room temperature, 33% relative humidity): at least 22 days
- Time stable when stored ([1]; room temperature, 58% relative humidity): at least 22 days
- Form indicated by XRPD analysis after storage ([1]; stored 5 days, about 5° C., about 11% relative humidity, lyophilized sample (Preparation Method 3)): tiagabine HCl amorphous
- Form indicated by XRPD analysis after storage ([1]; stored 8 days, about 5° C., about 43% relative humidity, lyophilized sample (Preparation Method 3)): tiagabine HCl amorphous
- Form indicated by XRPD analysis after storage ([1]; stored 22 days, room temperature, about 33% relative humidity, crash-cooled sample (Preparation Method 1)): tiagabine HCl amorphous
- Form indicated by XRPD analysis after storage ([1]; stored 22 days, room temperature, about 58% relative humidity, crash-cooled sample (Preparation Method 1)): tiagabine HCl amorphous
- Form indicated by XRPD analysis after storage ([1]; stored 22 days, room temperature, about 75% relative humidity, crash-cooled sample (Preparation Method 1), listed as Tiagabine hydrochloride amorphous, hydrochloride): a mixture of Forms A and B
- Form indicated by XRPD analysis after storage ([1]; stored 22 days, room temperature, about 84% relative humidity, crash-cooled sample (Preparation Method 1), listed as Tiagabine hydrochloride amorphous, hydrochloride): a mixture of Forms A and B
- Form indicated by XRPD analysis after heating [2]: tiagabine HCl Form B
- Form indicated by XRPD analysis after heating ([2]; listed as Tiagabine hydrochloride amorphous): tiagabine hydrochloride anhydrous
- Weight gain upon sorption ([3]; at 95% relative humidity (RH)): 12.1%
- Weight loss upon desorption ([3]; from 95% to 5% RH): 9.5%
- Forms present by XRPD analysis after moisture sorption/desorption ([3]; sample after sorption 5 to 95% RH and desorption 95 to 5% RH): tiagabine HCl Forms A and B
- solubility ([4]; aqueous with cosolvent or surfactant or cyclodextrin, solvent: 2-propanol/water (1:1)): > 129 mg/mL
- solubility ([4]; organic solvent or mixture, solvent: 1,4 dioxane/water (3:1)): > 359 mg/mL
- solubility ([4]; organic solvent or mixture, solvent: Acetonitrile): < 26 mg/mL
- solubility ([4]; organic solvent or mixture, solvent: Benzonitrile): > 448 mg/mL
- solubility ([4]; organic solvent or mixture, solvent: Chloroform): > 582 mg/mL
- solubility ([4]; organic solvent or mixture, solvent: Dichloromethane): < 34 mg/mL
- solubility ([4]; organic solvent or mixture, solvent: Dioxane): > 542 mg/mL
- solubility ([4]; organic solvent or mixture, solvent: Tetrahydrofuran): > 562 mg/mL
- solubility ([4]; organic solvent or mixture, solvent: Toluene): < 43 mg/mL
- solubility ([4]; organic solvent or mixture, solvent: Trifluoroethanol): > 713 mg/mL
- solubility ([4]; organic solvent or mixture, solvent: ethanol/water (10:1)): > 400 mg/mL
- solubility ([4]; organic solvent or mixture, solvent: ethyl acetate (wet)): > 1190 mg/mL
- solubility ([4]; organic solvent or mixture, solvent: ethyl acetate): < 24 mg/mL
- solubility ([4]; organic solvent or mixture, solvent: methyl ethyl ketone): > 546 mg/mL
- solubility ([4]; organic solvent or mixture, solvent: methyl-tert-butyl ether): < 14 mg/mL
- solubility ([4]; water, solvent: Water): > 490 mg/mL
Compound: Cc1ccsc1C(=CCCN1CCC[C@@H](C(=O)O)C1)c1sccc1C.Cl [tiagabine HCl amorphous, tiagabine hydrochloride]
- Form indicated by XRPD analysis after storage ([1]; stored 22 days, room temperature, about 75% relative humidity, crash-cooled sample (Preparation Method 1), hydrochloride): a mixture of tiagabine hydrochloride Forms A and B
- Form indicated by XRPD analysis after storage ([1]; stored 22 days, room temperature, about 84% relative humidity, crash-cooled sample (Preparation Method 1), hydrochloride): a mixture of tiagabine hydrochloride Forms A and B
